Counter-ions that a name gives are not always drawn. One block for each molecule: values may come before it.
Assays:
P2Y1 = molecular target: T1, P2Y1 (Homo sapiens, UniProt P47900); experiment: Western blotting of macrophage signaling, P2Y1; format: cell-based; conditions: low concentration
T1 construct: endogenous in cells
Description: (§1) It was identified that the Fe-ATP self-assembly was disassembled into the ATP and the iron ion such that the ATP was released therefrom, and this enabled AIP-mediated anti-inflammatory polarization of macrophages.

macrophages = experiment: Macrophage polarization (immunofluorescence Arg-1/iNOS, flow cytometry); format: cell-based; conditions: immunofluorescence staining
Description: FIG. 15 to FIG. 17 show experiments according to each of the treatment conditions in cells before experimenting in rats according to Experimental Example 2 below. As shown in a following table 6, the conditions were divided into the control group: PBS only based treatment, Fe-ATP based treatment, ATP only based treatment, FeCl2 based treatment, and Fe3O4 based treatment. FIG. 15 is the result of identifying disassembling of the Fe-ATP self-assembly. Referring to FIG. 15, under each treatment condition, an experiment result was identified via immunofluorescence staining of […] (M2 polarization marker), iNOS (M1 polarization marker), and Dapi. […] This was identified through flow cytometry.

P2X7 = molecular target: T2, P2X7 (Homo sapiens, UniProt Q99572); experiment: Western blotting of macrophage signaling, P2X7; format: cell-based; conditions: low concentration
T2 construct: endogenous in cells
T2 sequence (Q99572 1-595): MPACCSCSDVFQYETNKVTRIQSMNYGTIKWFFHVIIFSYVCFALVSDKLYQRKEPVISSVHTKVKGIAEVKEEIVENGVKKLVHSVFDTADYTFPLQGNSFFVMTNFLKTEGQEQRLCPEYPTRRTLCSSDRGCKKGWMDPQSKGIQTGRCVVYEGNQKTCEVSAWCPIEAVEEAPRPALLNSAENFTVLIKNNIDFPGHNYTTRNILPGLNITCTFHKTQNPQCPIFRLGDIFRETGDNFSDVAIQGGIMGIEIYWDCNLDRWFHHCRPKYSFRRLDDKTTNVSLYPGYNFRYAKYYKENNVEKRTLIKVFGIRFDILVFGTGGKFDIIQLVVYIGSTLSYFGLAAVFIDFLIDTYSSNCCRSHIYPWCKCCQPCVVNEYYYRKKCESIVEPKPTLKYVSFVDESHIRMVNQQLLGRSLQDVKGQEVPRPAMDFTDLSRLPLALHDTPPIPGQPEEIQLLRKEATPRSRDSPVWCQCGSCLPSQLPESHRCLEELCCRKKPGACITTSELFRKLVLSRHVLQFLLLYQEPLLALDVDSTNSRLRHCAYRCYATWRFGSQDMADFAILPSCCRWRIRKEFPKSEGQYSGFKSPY
Description: as §1

stem cells = experiment: Osteogenic differentiation of stem cells (RUNX2, osteocalcin immunofluorescence, ALP staining); format: cell-based
Description: FIG. 27 and FIG. 28 show experiments according to each of treatment conditions in cells before experimenting in rabbits according to Experimental Example 3 below. As shown in a following table 7, the treatment conditions include treatment with only PBS as a control group, treatment with Fe-AMP, treatment with AMP only, treatment with a combination of adenosine and PO4 (Adenosine+PO4), treatment with Adenosine, treatment with PO4, treatment with FeCl2, and treatment with an osteogenic induction medium. In this regard, FeCl2 was disassembled into Fe^2+ and Cl—. Thus, the treatment with FeCl2 was added to compare the released Fe^2+ therefrom with the Fe^2+ released from the […]. […] The adenosine obtained via decomposition of the AMP released from the Fe-AMP self-assembly was similar to osteogenic differentiation medium, and was analyzed via actin and dapi-positive nuclei and ALP chemical staining along with immunofluorescence staining of RUNX2 and osteocalcin. […] In other words, the Fe-AMP self-assembly induces osteogenic differentiation of stem cells through adenosine signaling. This was identified via immunofluorescence staining of RUNX2 and osteocalcin along with actin, dapi-positive nuclei, and ALP chemical staining.

ROS = experiment: IVIS L-012 ROS signal analysis in vivo; design: species or system mouse; conditions: 2 hours after the injection
Method: Luminescent probes L-012 (Wako Chemical, Korea) were dissolved in […] a thus prepared solution was maintained in a fresh state just before the experiment. In a 50 […] injection volume, 25 mg/kg thereof was administered subcutaneously to a back of a mouse. Chemiluminescence (CL) release assessment was started immediately after the injection of L-012 using indiGOTM software and IVIS (In vivo Imaging System, NightOWL II LB 983, BERTHOLD Technologies GmbH, Germany). To collect sufficient CL release data, the mouse was exposed thereto for 20 seconds each time. CL released from the mouse skin was recorded and visualized in real time, and then the CL released in an area of interest was quantified as total flux (photons/second).

hMSCs = experiment: Western blotting of osteogenic differentiation via adenosine-A2B receptor signaling; format: cell-based

T1 sequence (P47900 whole entry, species assumed): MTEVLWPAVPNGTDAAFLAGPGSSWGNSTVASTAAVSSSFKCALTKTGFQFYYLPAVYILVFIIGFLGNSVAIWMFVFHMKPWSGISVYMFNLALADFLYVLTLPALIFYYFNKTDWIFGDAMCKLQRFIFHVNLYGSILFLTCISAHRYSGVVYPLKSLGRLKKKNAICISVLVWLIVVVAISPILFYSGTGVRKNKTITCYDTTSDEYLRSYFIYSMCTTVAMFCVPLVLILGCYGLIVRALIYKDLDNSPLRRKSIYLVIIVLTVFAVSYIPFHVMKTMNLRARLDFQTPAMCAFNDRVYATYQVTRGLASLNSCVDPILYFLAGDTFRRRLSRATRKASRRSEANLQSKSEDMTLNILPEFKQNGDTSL

P2Y1 signaling (P2Y1): stimulated P2Y1 signaling
P2X7 signaling (P2X7): inhibited P2X7 signaling
Compound: Nc1ncnc2c1ncn2[C@@H]1O[C@H](COP(=O)([O-])OP(=O)([O-])OP(=O)(O)O)[C@@H](O)[C@H]1O.[Na+].[Na+] [ATP, Adenosine 5′-triphosphate disodium salt]
Arg-1 (M2 polarization marker) expression (macrophages): strongly expressed

Compound: Nc1ncnc2c1ncn2[C@@H]1O[C@H](CO)[C@@H](O)[C@H]1O [Adenosine]
Osteogenic differentiation of stem cells (stem cells): induced the osteogenic differentiation to a similar level thereto

Compound: COc1cccc2c1C(=O)c1c(O)c3c(c(O)c1C2=O)C[C@@](O)(C(=O)CO)C[C@@H]3O[C@H]1C[C@H](N)[C@H](O)[C@H](C)O1 [Doxorubicin (DOX), Doxorubicin hydrochloride]
ROS production in vivo (L-012 signal) (ROS): has little effect on the ROS release in a short period of time

Compound: [Cl][Fe][Cl] [FeCl2, Iron(II) chloride]
Arg-1 (M2 polarization marker) expression (macrophages): not expressed

Compound: CCCn1c(=O)[nH]c2nc(-c3ccc(S(=O)(=O)N4CCN(c5ccc(Cl)cc5)CC4)cc3)[nH]c2c1=O [PSB 603]
Osteogenic differentiation of hMSCs (hMSCs): osteogenic differentiation of hMSCs was inhibited
